Laboratory results as given in patent US8980850B2, “Administration of a NEDD8-activating enzyme inhibitor and hypomethylating agent” (Millennium Pharmaceuticals, Inc., priority 2011, dated 2015).

Columns and labels:
[1] = tested on: THP-1
Description: Normalization. […] After normalization, the controls were discarded.

[2] = tested on: HL-60 disseminated xenograft; test: HL-60 disseminated xenograft model, survival; type: in vivo, female mice CB-17 SCID; details: MLN4924 180 mg/kg and/or azacitidine 10 mg/kg s.c. on days 22, 25, 29, 32, 36, 39; for Mean survival time: Vehicle 48.1
Protocol: Test subjects. […] On day 20 post-inoculation, mice were randomized into groups of 10. Starting on day 22, mice were dosed subcutaneously with vehicle, 180 mg/kg MLN4924, 10 mg/kg azacitidine, or the combination of 180 mg/kg MLN4924 and 10 mg/kg azacitidine, using the same twice-weekly schedule as described in the subcutaneous xenograft experiments (dosing on days 22, 25, 29, 32, 36, 39). The mice were monitored at least twice weekly for body weight loss and signs of disease, including paresis or paralysis of hind limbs and emergence of palpable and internal solid tumors. The day on which an animal died or was sacrificed due to disease burden was recorded.
To determine synergy in the survival times, the mean survival times and corresponding standard errors were computed for each treatment group.

[3] = tested on: THP-1 subcutaneous xenograft tumors; test: THP-1 subcutaneous xenograft model, tumor growth and synergy; details: s.c. Days 1, 4, 8, 11, 15 and 18; FIG. 3
[4] = tested on: OCI-M2 subcutaneous xenograft tumors; test: OCI-M2 subcutaneous xenograft model, tumor growth and synergy; details: s.c. Days 1, 4, 8, 11, 15 and 18; FIG. 4
[5] = tested on: HL60 subcutaneous xenograft tumors; test: HL-60 subcutaneous xenograft model, tumor growth and synergy; details: s.c. Days 1, 4, 8, 11, 15 and 18; FIG. 2

Row | Compound | single agent activity [1] | extension of mean survival time compared to the control group [2] [days] | Mean survival time [2] [days] | effect on tumor growth [3] | effect on tumor growth [4] | effect on tumor growth [5]
1 | Nc1ncn([C@H]2C[C@H](O)[C@@H](CO)O2)c(=O)n1 [decitabine, 4-amino-1-(2-deoxy-β-D-erythropentofuranosyl)-1,3,5-triazin-2(1H)-one] | lack of single agent activity | – | – | – | – | –
2 | Nc1ncn([C@@H]2O[C@H](CO)[C@@H](O)[C@H]2O)c(=O)n1 [azacitidine, 4-amino-1-β-D-ribofuranosyl-s-triazin-2(1H)-one] | – | 21.1 | 69.2 | marginal effect on tumor growth | inhibited tumor growth | marginal effect on tumor growth
3 | NS(=O)(=O)OC[C@@H]1C[C@@H](n2ccc3c(N[C@H]4CCc5ccccc54)ncnc32)C[C@@H]1O [MLN4924, ((1S,2S,4R)-4-(4-((1S)-2,3-dihydro-1H-inden-1-ylamino)-7H-pyrrolo[2,3-d]-pyrimidin-7-yl)-2-hydroxycyclopentyl)methyl sulfamate] | – | 8.4 | 56.5 | inhibited tumor growth | inhibited tumor growth | marginal effect on tumor growth
